In this test the target is T1, Kynureninase (Homo sapiens) (UniProt Q16719).
T1 sequence (whole entry): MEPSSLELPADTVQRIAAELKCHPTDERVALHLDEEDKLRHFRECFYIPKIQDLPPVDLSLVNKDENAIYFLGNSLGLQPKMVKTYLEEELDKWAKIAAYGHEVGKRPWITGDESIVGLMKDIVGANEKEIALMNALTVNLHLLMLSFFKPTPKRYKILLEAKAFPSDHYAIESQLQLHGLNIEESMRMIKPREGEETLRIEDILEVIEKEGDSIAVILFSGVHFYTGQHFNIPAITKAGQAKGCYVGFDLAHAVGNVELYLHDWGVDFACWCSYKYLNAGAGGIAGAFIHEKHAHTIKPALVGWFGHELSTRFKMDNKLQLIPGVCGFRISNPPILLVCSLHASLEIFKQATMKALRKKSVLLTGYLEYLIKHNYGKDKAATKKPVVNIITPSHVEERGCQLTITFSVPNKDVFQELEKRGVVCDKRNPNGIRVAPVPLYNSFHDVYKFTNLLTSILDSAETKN
Nature of the test: Inhibition of human kynureninase at 1 mM.

Active and inactive are the calls of the source. No cut-off for these calls is given here.

Consider `Nc1c(O)cccc1C(=O)NCC(=O)O`, for which the result was inactive.

As for `O=C(O)CNC(=O)c1ccccc1`, the outcome was inactive.

(Values after ChEMBL document CHEMBL1139388, “Crystal structure of the Homo sapiens kynureninase-3-hydroxyhippuric acid inhibitor complex: insights into the molecular basis of kynureninase substrate specificity” (J Med Chem, 2009).)
